{"source": "ChEMBL document CHEMBL3351957", "about": "“Synthesis and pharmacological evaluation of optically pure, novel carbonyl guanidine derivatives as dual 5-HT2B and 5-HT7 receptor antagonists” (Bioorg Med Chem, 2014)", "key": {"Mus musculus": {"test_system": "Mus musculus", "experiment": "Reversal of 5-CT-induced hypothermic effect in po dosed mouse assessed as minimum effective dose", "type": "functional", "conditions": "for minimal effective dose: read-out: MED"}, "[1]": {"biological_target": "T1, 5-hydroxytryptamine receptor 2B (Homo sapiens, UniProt P41595)", "T1 sequence (P41595 whole entry)": "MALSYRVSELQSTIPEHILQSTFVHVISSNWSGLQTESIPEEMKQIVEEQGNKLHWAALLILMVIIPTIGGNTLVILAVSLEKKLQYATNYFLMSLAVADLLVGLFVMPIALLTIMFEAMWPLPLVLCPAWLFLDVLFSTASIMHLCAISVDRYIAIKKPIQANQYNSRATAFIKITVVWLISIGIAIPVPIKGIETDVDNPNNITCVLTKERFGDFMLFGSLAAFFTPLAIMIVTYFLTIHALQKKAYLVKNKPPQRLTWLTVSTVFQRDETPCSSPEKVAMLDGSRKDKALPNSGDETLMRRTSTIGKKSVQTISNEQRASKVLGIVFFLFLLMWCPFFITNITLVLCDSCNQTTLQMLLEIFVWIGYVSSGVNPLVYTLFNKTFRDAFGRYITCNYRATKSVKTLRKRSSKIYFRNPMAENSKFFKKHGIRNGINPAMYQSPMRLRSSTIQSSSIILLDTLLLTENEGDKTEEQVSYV", "experiment": "Displacement of [3H]mesulergine from human 5-HT2B receptor expressed in HEK293 cells", "type": "cell-based"}, "[2]": {"biological_target": "5-hydroxytryptamine receptor 7 (Homo sapiens, UniProt P34969)", "sequence (P34969 whole entry)": "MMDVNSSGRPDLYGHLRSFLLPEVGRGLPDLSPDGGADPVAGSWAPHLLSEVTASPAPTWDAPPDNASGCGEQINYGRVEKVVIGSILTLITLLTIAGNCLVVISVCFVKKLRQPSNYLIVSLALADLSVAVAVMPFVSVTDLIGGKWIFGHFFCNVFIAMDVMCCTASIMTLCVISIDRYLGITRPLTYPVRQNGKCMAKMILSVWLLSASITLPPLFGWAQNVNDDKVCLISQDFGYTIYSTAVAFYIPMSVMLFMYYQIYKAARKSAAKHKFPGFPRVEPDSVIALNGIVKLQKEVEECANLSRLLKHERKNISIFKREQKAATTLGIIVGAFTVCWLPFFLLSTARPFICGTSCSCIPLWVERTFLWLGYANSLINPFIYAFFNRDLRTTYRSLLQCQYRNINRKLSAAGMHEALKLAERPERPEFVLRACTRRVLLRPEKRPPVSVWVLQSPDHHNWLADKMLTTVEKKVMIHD", "experiment": "Displacement of [3H]5-HT from human 5-HT7 receptor expressed in CHO cells", "type": "cell-based"}, "[3]": {"biological_target": "5-hydroxytryptamine receptor 2A (Homo sapiens, UniProt P28223)", "sequence (P28223 whole entry)": "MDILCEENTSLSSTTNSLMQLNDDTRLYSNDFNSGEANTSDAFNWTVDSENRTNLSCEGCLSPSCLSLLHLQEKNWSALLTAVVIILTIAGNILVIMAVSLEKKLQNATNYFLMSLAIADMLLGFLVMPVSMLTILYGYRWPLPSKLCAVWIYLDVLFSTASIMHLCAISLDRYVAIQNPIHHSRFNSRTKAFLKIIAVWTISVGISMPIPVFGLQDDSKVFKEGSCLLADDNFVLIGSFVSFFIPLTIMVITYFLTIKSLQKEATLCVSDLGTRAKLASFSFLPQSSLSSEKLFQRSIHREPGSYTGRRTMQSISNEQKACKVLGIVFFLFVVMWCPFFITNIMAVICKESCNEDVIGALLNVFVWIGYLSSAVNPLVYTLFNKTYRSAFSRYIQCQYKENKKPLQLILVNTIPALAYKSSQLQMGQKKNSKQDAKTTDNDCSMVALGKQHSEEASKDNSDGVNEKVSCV", "experiment": "Binding affinity to serotonin 5-HT2A receptor (unknown origin)"}, "[4]": {"biological_target": "T2, 5-hydroxytryptamine receptor 2C (Homo sapiens, UniProt P28335)", "T2 sequence (P28335 whole entry)": "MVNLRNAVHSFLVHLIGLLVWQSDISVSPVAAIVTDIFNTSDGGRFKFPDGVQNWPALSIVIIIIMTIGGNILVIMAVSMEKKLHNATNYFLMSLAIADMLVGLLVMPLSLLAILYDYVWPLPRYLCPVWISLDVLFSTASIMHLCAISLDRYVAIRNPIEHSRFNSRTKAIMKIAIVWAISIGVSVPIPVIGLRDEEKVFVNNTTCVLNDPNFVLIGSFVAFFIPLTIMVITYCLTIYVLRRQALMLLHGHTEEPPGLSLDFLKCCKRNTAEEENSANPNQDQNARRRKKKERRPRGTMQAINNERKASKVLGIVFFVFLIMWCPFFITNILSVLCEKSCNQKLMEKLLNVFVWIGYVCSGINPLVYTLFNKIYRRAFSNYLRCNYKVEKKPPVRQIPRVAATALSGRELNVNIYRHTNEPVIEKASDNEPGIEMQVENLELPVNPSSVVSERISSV", "experiment": "Binding affinity to serotonin 5-HT2C receptor (unknown origin)"}, "[5]": {"biological_target": "T3, Adrenergic receptor alpha-1 (Homo sapiens, UniProt P35348+P25100+P35368)", "T3 sequence (P35348 whole entry)": "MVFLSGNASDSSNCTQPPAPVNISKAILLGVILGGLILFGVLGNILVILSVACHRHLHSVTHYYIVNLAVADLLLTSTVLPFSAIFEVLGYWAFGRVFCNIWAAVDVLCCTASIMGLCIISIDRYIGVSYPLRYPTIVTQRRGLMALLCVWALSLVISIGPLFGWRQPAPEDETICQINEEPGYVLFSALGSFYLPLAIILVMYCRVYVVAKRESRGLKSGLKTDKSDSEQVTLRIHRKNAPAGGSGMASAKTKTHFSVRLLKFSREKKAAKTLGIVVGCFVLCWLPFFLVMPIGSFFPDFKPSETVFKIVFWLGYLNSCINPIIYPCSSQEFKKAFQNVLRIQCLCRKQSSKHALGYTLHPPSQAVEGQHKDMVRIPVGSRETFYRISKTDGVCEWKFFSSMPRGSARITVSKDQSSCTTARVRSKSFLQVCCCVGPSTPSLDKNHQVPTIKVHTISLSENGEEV", "T3 sequence (P25100 whole entry)": "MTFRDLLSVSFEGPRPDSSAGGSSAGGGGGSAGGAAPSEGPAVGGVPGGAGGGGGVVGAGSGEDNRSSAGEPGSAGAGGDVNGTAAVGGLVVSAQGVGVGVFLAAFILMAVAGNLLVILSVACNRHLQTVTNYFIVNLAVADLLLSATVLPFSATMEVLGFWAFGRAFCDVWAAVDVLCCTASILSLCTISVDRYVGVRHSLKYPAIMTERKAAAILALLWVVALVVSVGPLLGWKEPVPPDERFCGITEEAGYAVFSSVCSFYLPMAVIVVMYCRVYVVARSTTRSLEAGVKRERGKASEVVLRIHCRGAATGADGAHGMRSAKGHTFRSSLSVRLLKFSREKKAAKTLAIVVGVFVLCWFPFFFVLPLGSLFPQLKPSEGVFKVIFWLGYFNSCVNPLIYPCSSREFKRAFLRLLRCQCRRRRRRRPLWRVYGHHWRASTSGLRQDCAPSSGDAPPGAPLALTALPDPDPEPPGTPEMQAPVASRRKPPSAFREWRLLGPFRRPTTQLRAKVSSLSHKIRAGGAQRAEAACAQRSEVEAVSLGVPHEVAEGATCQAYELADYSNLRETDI", "T3 sequence (P35368 whole entry)": "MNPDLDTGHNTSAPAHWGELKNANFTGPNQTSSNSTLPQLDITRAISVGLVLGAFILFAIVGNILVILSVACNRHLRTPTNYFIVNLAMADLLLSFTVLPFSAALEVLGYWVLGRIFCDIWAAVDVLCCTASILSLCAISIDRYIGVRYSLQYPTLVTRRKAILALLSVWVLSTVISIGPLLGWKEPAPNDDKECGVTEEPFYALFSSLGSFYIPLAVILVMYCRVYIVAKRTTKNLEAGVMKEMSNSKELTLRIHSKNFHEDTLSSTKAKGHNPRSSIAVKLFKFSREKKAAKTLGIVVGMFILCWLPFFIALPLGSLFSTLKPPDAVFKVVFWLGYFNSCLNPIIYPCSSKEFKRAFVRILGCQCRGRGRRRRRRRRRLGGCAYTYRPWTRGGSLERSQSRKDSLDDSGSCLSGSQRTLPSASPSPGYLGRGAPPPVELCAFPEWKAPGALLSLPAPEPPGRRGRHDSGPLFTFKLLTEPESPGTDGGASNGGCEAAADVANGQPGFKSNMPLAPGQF", "experiment": "Binding affinity to alpha1-adrenergic receptor (unknown origin)"}, "D(2) dopamine receptor": {"biological_target": "D(2) dopamine receptor (Homo sapiens, UniProt P14416)", "sequence (P14416 whole entry)": "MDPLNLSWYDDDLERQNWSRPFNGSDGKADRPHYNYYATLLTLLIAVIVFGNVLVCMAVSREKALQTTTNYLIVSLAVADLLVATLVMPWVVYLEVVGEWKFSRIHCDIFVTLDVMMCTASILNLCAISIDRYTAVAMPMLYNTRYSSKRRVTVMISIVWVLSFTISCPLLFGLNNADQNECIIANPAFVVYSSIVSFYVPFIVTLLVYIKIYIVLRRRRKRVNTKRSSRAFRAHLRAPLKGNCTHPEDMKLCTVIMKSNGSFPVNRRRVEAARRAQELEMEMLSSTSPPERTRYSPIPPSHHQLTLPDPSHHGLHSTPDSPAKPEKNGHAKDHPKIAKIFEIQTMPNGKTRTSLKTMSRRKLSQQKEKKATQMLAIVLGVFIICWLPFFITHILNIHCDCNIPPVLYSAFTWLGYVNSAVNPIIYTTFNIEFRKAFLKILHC", "experiment": "Binding affinity to dopamine D2 receptor (unknown origin)"}, "[6]": {"biological_target": "T4, Muscarinic acetylcholine receptor M5 (Homo sapiens, UniProt P08912)", "T4 sequence (P08912 whole entry)": "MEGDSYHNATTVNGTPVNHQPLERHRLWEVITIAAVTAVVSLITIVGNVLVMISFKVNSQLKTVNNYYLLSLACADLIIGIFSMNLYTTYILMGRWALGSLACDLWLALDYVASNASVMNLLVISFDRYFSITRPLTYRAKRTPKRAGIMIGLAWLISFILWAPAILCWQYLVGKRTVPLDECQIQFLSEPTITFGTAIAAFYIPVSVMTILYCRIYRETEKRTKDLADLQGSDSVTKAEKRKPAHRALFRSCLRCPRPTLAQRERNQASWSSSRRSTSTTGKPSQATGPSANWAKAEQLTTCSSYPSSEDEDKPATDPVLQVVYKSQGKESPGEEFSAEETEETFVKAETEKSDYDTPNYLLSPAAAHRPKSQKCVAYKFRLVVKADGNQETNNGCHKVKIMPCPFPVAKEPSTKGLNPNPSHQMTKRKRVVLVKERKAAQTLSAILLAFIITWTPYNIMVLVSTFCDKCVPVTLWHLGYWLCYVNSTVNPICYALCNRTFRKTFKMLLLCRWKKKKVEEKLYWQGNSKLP", "experiment": "Binding affinity to muscarinic M5 receptor (unknown origin)"}, "[7]": {"biological_target": "T1, 5-hydroxytryptamine receptor 2B", "experiment": "Antagonist activity at human 5-HT2B receptor expressed in HEK293 cells assessed as [3H]PI metabolism", "type": "cell-based"}, "Cavia porcellus [8]": {"test_system": "Cavia porcellus", "experiment": "Suppression of 5-HT-induced dural protein extravasation in po dosed Hartley guinea pig", "type": "functional, organism-based"}, "Cavia porcellus [9]": {"test_system": "Cavia porcellus", "experiment": "Suppression of 5-HT-induced dural protein extravasation in Hartley guinea pig at 10 mg/kg, po", "type": "functional, organism-based", "set-up": "dose 10 mg/kg"}}, "note": "Calls of active or inactive are those of the source. The rule behind the calls is not given here.", "data": [{"smiles": "CC1(O)c2ccccc2-c2ccc(C(=O)N=C(N)N)cc21.Cl", "note": "(stereo not drawn)", "values": [{"measurement": "minimal effective dose", "setting": "Mus musculus", "value": 30, "unit": "mg/kg"}]}, {"smiles": "COC1(C)c2ccccc2-c2ccc(C(=O)N=C(N)N)cc21.Cl", "note": "(stereo not drawn)", "values": [{"measurement": "Ki", "setting": "[1]", "value": 3.3, "unit": "nM"}, {"measurement": "Ki", "setting": "[2]", "value": 1.4, "unit": "nM"}, {"measurement": "minimal effective dose", "setting": "Mus musculus", "value": 30, "unit": "mg/kg"}]}, {"smiles": "Cl.NC(N)=NC(=O)c1ccc2c(c1)C1(CCCC1)c1ccccc1-2", "values": [{"measurement": "Ki", "setting": "[1]", "value": 1.7, "unit": "nM"}, {"measurement": "Ki", "setting": "[2]", "value": 1.8, "unit": "nM"}, {"measurement": "minimal effective dose", "setting": "Mus musculus", "value": "≤ 100", "unit": "mg/kg"}]}, {"smiles": "COCC1(OC)c2ccccc2-c2ccc(C(=O)N=C(N)N)cc21.Cl", "note": "(stereo not drawn)", "values": [{"measurement": "Ki", "setting": "[1]", "value": 2, "unit": "nM"}, {"measurement": "Ki", "setting": "[2]", "value": 0.76, "unit": "nM"}, {"measurement": "minimal effective dose", "setting": "Mus musculus", "value": "> 30", "unit": "mg/kg"}]}, {"smiles": "CCC1(OC)c2ccccc2-c2ccc(C(=O)N=C(N)N)cc21.Cl", "note": "(stereo not drawn)", "values": [{"measurement": "Ki", "setting": "[1]", "value": 4.8, "unit": "nM"}, {"measurement": "Ki", "setting": "[2]", "value": 0.6, "unit": "nM"}, {"measurement": "minimal effective dose", "setting": "Mus musculus", "value": 10, "unit": "mg/kg"}]}, {"smiles": "Cl.NC(N)=NC(=O)c1ccc2c(c1)C1(CCCO1)c1ccccc1-2", "note": "(stereo not drawn)", "values": [{"measurement": "Ki", "setting": "[1]", "value": 5.1, "unit": "nM"}, {"measurement": "minimal effective dose", "setting": "Mus musculus", "value": 3, "unit": "mg/kg"}, {"measurement": "Ki", "setting": "[3]", "value": "> 1000", "unit": "nM"}, {"measurement": "Ki", "setting": "[4]", "value": 152, "unit": "nM"}, {"measurement": "Ki", "setting": "[5]", "value": "> 1000", "unit": "nM"}, {"measurement": "Ki", "setting": "D(2) dopamine receptor", "value": "> 1000", "unit": "nM"}, {"measurement": "Ki", "setting": "[6]", "value": "> 1000", "unit": "nM"}, {"measurement": "IC50", "setting": "[7]", "value": 55, "unit": "nM"}]}, {"smiles": "NC(N)=NC(=O)c1ccc2c(c1)[C@@]1(CCCO1)c1ccccc1-2", "values": [{"measurement": "Ki", "setting": "[1]", "value": 5.1, "unit": "nM"}, {"measurement": "IC50", "setting": "[7]", "value": 73, "unit": "nM"}, {"measurement": "inhibition", "setting": "Cavia porcellus [8]", "value": "Dose-dependent effect"}, {"measurement": "inhibition", "setting": "Cavia porcellus [9]", "value": "Active"}]}, {"smiles": "NC(N)=NC(=O)c1ccc2c(c1)C1(CC1)c1ccccc1-2", "values": [{"measurement": "Ki", "setting": "[1]", "value": 0.51, "unit": "nM"}, {"measurement": "Ki", "setting": "[2]", "value": 4.9, "unit": "nM"}, {"measurement": "MED", "setting": "Mus musculus", "value": "inactive"}]}, {"smiles": "CCCCC1(O)c2ccccc2-c2ccc(C(=O)N=C(N)N)cc21", "note": "(stereo not drawn)", "values": [{"measurement": "Ki", "setting": "[1]", "value": 31, "unit": "nM"}, {"measurement": "Ki", "setting": "[2]", "value": "> 100", "unit": "nM"}]}, {"smiles": "NC(N)=NC(=O)c1ccc2c(c1)C1(CCOCC1)c1ccccc1-2", "values": [{"measurement": "Ki", "setting": "[1]", "value": 9.1, "unit": "nM"}, {"measurement": "Ki", "setting": "[2]", "value": 1.3, "unit": "nM"}]}, {"smiles": "NC(N)=NC(=O)c1ccc2c(c1)[C@]1(CCCO1)c1ccccc1-2", "values": [{"measurement": "Ki", "setting": "[1]", "value": 2.7, "unit": "nM"}, {"measurement": "IC50", "setting": "[7]", "value": 35, "unit": "nM"}, {"measurement": "inhibition", "setting": "Cavia porcellus [8]", "value": "Dose-dependent effect"}, {"measurement": "inhibition", "setting": "Cavia porcellus [9]", "value": "Active"}]}, {"smiles": "CCC1(O)c2ccccc2-c2ccc(C(=O)N=C(N)N)cc21", "note": "(stereo not drawn)", "values": [{"measurement": "Ki", "setting": "[1]", "value": 41, "unit": "nM"}, {"measurement": "Ki", "setting": "[2]", "value": 1.2, "unit": "nM"}]}]}
